Data as given in US10294212B2 (CURADEV PHARMA PRIVATE LTD., priority 2013, dated 2019).

Assay: Brain penetration in rats
Assay type: in vivo, Sprague-Dawley rats
Settings: rat, single i.v. 10 mg/kg
Description: ii. Brain penetration in rats: Early and accurate prediction of drug penetration of the blood brain barrier is vital for the development of drugs targeting the central nervous system. Accordingly, ability of the compounds of the invention to penetrate the blood brain barrier was tested according to the methods well established in the art (Giorgetti et al., (2010) JPET 333:748-757, 2010). Briefly, Sprague-Dawley rats (n=3 per time point studied) were administered a single intravenous dose of the test compounds 2 or 97 formulated in 40% PEG and 20% PG at 10 mg/kg. Three rats were used for each of the following time points post-dosing: 0.5 hr, 1.5 hr and 3.0 hrs. First, blood was collected during deep anesthesia in heparinized tubes, and then animals were sacrificed and their brains were harvested. The brains were then pulverized in liquid nitrogen and homogenized in fixed volumes of ice cold homogenization buffer (10% Acetonitrile, 0.1% formic acid in water). Plasma was separated from blood using standard procedures. Plasma and brain concentrations of test compounds 2 and 97 were determined by LC/MS/MS using an API 4000 or AP15500 Qtrap mass spectrometer. Brain/Plasma ratio of test compounds 2 and 97 were determined after normalizing brain weight and buffer volume.

| Compound | blood brain barrier penetration |
| --- | --- |
| Nc1oc2cnccc2c1Nc1ccc(F)c(Cl)c1 [Compound 2, N^3-(3-Chloro-4-fluoro-phenyl)-furo[2,3-c]pyridine-2,3-diamine] | capable of penetrating blood brain barrier |
| Nc1oc2c(-c3ccncc3)nccc2c1Nc1ccc(F)c(Cl)c1 [Compound 97, N^3-(3-Chloro-4-fluorophenyl)-7-(pyridin-4-yl)furo[2,3-c]pyridine-2,3-diamine] | capable of penetrating blood brain barrier |
